These results are taken from patent US10183936B2, “Hepatitis B core protein allosteric modulators” (priority 2014, dated 2019).

Structures are written as SMILES.

Series [1] deals with AD38 cells. Put plainly: Viability of AD38 cells (Promega CellTiter-Glo) at the end of compound treatment. The format is cell-based. The settings on record: 10 μM compound, 6 days, luminescence normalized against DMSO control wells (controls being 100%). As to the method:
(§1) Example 56: Assay Measuring Activity of Compounds on Viral Production in and on Viability of AD38 Cells
(§2) AD38 cells were then re-suspended with 10 mL of Treatment Medium and counted. Wells of a collagen coated 96-well NUNC microtiter plate were seeded at 50,000/well in 180 μL of Treatment Medium, and 20 μL of in treatment media with either 10% DMSO (Control) or a 10× solution of compound in 10% DMSO was added. Plates were incubated for 6 days at 37° C.
At the end of compound treatment period cell viability was assessed using a Promega CellTiter-Glo protocol. All supernatant was removed the previously treated 96-well microtiter plate, and 50 μL Tetracycline-free treatment medium (DMEM/F12 (1:1), lx Pen/step (cat#: 30-002-CL, Mediatech, Inc), with 2% FBS, Tet-system approved (cat#: 631106, Clontech), and 1% DMSO was added back to each well. Another 50 μL of CellTiter-Glo reagent solution (Promega, G7573) was then added at room temperature and the contents mixed for 2 minutes on an orbital shaker to induce cell lysis. This was followed by incubation at room temperature for 10 minutes to stabilize the luminescent signal. The luminescence was recorded for 0.2 seconds per well on a Tecan multimode platereader (Infinite M1000 pro). The luminescent signal from each well was normalized against that of untreated (DMSO) control wells. All results were reported percent viability (with controls being 100%).

For series [2], the system named is HBV viral production in AD38 cells. Kind of series: Viral load production in AD38 cells by quantitative PCR of the HBV core sequence in supernatant. In kind it is cell-based. The settings on record: Hepatitis B virus, 144 h; 10 μM compound, 6 days at 37° C., viral load in supernatant compared against DMSO control wells; read-out: AD38 Viral Load (CpAM/DMSO %) at 10 μM. As to the method:
as §1, §2
Viral load production was assayed by quantitative PCR of the core sequence. Briefly, 5 μL of clarified supematant was added to a PCR reaction mixture that contained forward primers HBV-f 5′-CTGTGCCTTGGGTGGCTTT-3′, Reverse primers HBV-r 5′-[…]-3′ and Fluorescent TaqMan™ Probes HBV-probe 5′-FAM/AGCTCCAAA/ZEN/[…]/3IABkFQ-3′ in Quanta Biosciences PerfeCTa® qPCR Toughmix®, and was subsequently on an Applied Biosystems VIIA7 in a final volume of 20 μL. The PCR mixture was incubated at 45° C. for 5 minutes, then 95° C. for 10 min, followed by 40 cycles of 10 seconds at 95° C. and 20 seconds at 60° C. Viral load was quantitated against known standards by using ViiA™ 7 Software. Viral load in the supematant from wells with treated cells were compared against viral load in supernatant from DMSO control wells (≥3 per plate).

Take `O=C(NCc1ccccc1F)c1ccc2c(c1)NC(=O)c1ccccc1S2` [Compound 1167]: the “AD38 Viability Normalized Result (CPAM/DMSO %) at 10 μM” value in series [1] is listed as 124%. Moreover, the activity at 10 µM in series [2] amounted to 57%.
Turning to `O=C(NCc1cccc(F)c1)c1ccc2c(c1)NC(=O)c1ccccc1S2` [Compound 1168], the “AD38 Viability Normalized Result (CPAM/DMSO %) at 10 μM” value in series [1] is reported as 117%. Also, the activity at 10 µM in series [2] was 10%.
Turning to `O=C(NCC1CCCCC1)c1ccc2c(c1)NC(=O)c1ccccc1S2` [Compound 1169], the “AD38 Viability Normalized Result (CPAM/DMSO %) at 10 μM” value in series [1] is on record as 107%. Further, in series [2], the activity at 10 µM was 39%.
Taken in the same sequence, the figures for `O=C(NCCC12CC3CC(CC(C3)C1)C2)c1ccc2c(c1)NC(=O)c1ccccc1S2` [Compound 1170] were 95% and 1%.
Taken in the same sequence, the figures for `COCCNC(=O)c1ccc2c(c1)NC(=O)c1ccccc1S2` [Compound 1171] were 103% and 49%.
Taken in the same sequence, the figures for `O=C(NCCO)c1ccc2c(c1)NC(=O)c1ccccc1S2` [Compound 1172] were 107% and 51%.
Regarding `O=C(NCC1CC1)c1ccc2c(c1)NC(=O)c1ccccc1S2` [Compound 1173], in series [1], the “AD38 Viability Normalized Result (CPAM/DMSO %) at 10 μM” value is on record as 105%. In addition, the activity at 10 µM in series [2] stood at 39%.
For the compound `O=C(NCC1CCC1)c1ccc2c(c1)NC(=O)c1ccccc1S2` [Compound 1174], in series [1], the “AD38 Viability Normalized Result (CPAM/DMSO %) at 10 μM” value turned out to be 109%. Also, the activity at 10 µM in series [2] is 35%.
As for `O=C(NCCN1CCOCC1)c1ccc2c(c1)NC(=O)c1ccccc1S2` [Compound 1175], the “AD38 Viability Normalized Result (CPAM/DMSO %) at 10 μM” value in series [1] is 123%. In series [2], the activity at 10 µM stood at 30%.
Taken in the same sequence, the figures for `CCC(CNC(=O)c1ccc2c(c1)NC(=O)c1ccccc1S2)c1ccccc1` (stereo not drawn) [Compound 1176] were 104% and 2%.
Taken in the same sequence, the figures for `CC(Cc1cccc(O)c1)NC(=O)c1ccc2c(c1)NC(=O)c1ccccc1S2` (stereo not drawn) [Compound 1177] were 118% and 47%.
For `O=C(NCCc1ccc(OC(F)(F)F)cc1)c1ccc2c(c1)NC(=O)c1ccccc1S2` [Compound 1182], in series [1], the “AD38 Viability Normalized Result (CPAM/DMSO %) at 10 μM” value is 55%. Also, the activity at 10 µM in series [2] is 13%.
For `Cc1cccc(CCNC(=O)c2ccc3c(c2)NC(=O)c2ccccc2S3)c1` [Compound 1183], in series [1], the “AD38 Viability Normalized Result (CPAM/DMSO %) at 10 μM” value is reported as 36%. The activity at 10 µM in series [2] turned out to be 2%.
As for `Cc1ccc(CCNC(=O)c2ccc3c(c2)NC(=O)c2ccccc2S3)cc1` [Compound 1184], the “AD38 Viability Normalized Result (CPAM/DMSO %) at 10 μM” value in series [1] was 0%. In addition, the activity at 10 µM in series [2] is 1%.
Taken in the same sequence, the figures for `CCc1ccc(CCNC(=O)c2ccc3c(c2)NC(=O)c2ccccc2S3)cc1` [Compound 1185] were 0% and 1%.
Taken in the same sequence, the figures for `O=C(NCCc1ccc(C(F)(F)F)cc1)c1ccc2c(c1)NC(=O)c1ccccc1S2` [Compound 1186] were 39% and 1%.
For `Cc1ccccc1CNC(=O)c1ccc2c(c1)NC(=O)c1ccccc1S2` [Compound 1187] the same measures were 73% and 1%.
`CCc1ccc(CNC(=O)c2ccc3c(c2)NC(=O)c2ccccc2S3)cc1` [Compound 1188]: the “AD38 Viability Normalized Result (CPAM/DMSO %) at 10 μM” value in series [1] amounted to 83%. For the same compound, in series [2], the activity at 10 µM was 4%.
Taken in the same sequence, the figures for `O=C(NCC12CC3CC(CC(C3)C1)C2)c1ccc2c(c1)NC(=O)c1ccccc1S2` [Compound 1189] were 85% and 1%.
With `O=C(NCCc1cccs1)c1ccc2c(c1)NC(=O)c1ccccc1S2` [Compound 1190], the “AD38 Viability Normalized Result (CPAM/DMSO %) at 10 μM” value in series [1] was 70%. The activity at 10 µM in series [2] amounted to 1%.
In the case of `O=C(NCCC1CCOCC1)c1ccc2c(c1)NC(=O)c1ccccc1S2` [Compound 1191], the “AD38 Viability Normalized Result (CPAM/DMSO %) at 10 μM” value in series [1] was found to be 121%. The activity at 10 µM in series [2] was 14%.
For `O=C(NCCOc1ccccc1)c1ccc2c(c1)NC(=O)c1ccccc1S2` [Compound 1192] the same measures were 81% and 3%.
For the compound `O=C(NCC1CCCC1)c1ccc2c(c1)NC(=O)c1ccccc1S2` [Compound 1193], the “AD38 Viability Normalized Result (CPAM/DMSO %) at 10 μM” value in series [1] is given as 90%. Further, the activity at 10 µM in series [2] worked out at 4%.
For `CC(C)(C)c1ccc(CCNC(=O)c2ccc3c(c2)NC(=O)c2ccccc2S3)cc1` [Compound 1194], in series [1], the “AD38 Viability Normalized Result (CPAM/DMSO %) at 10 μM” value is reported as 45%. Also, the activity at 10 µM in series [2] is 1%.
For `O=C(NCCc1cccc(C(F)(F)F)c1)c1ccc2c(c1)NC(=O)c1ccccc1S2` [Compound 1195] the same measures were 48% and 0%.
For the compound `O=C(NCc1ccc(O)cc1)c1ccc2c(c1)NC(=O)c1ccccc1S2` [Compound 1196], in series [1], the “AD38 Viability Normalized Result (CPAM/DMSO %) at 10 μM” value was 95%. In series [2], the activity at 10 µM is 2%.
In the case of `O=C(NCc1ccc(F)cc1)c1ccc2c(c1)NC(=O)c1ccccc1S2` [Compound 1197], the “AD38 Viability Normalized Result (CPAM/DMSO %) at 10 μM” value in series [1] is given as 88%. Moreover, the activity at 10 µM in series [2] is 1%.
Taken in the same sequence, the figures for `O=C(NCCC1CCCCC1)c1ccc2c(c1)NC(=O)c1ccccc1C2` [Compound 1198] were 60% and 3%.
Regarding `O=C(NCCC1CCCCC1)c1ccc2c(c1)Sc1ccccc1C(=O)N2` [Compound 1199], the “AD38 Viability Normalized Result (CPAM/DMSO %) at 10 μM” value in series [1] stood at 109%. For the same compound, the activity at 10 µM in series [2] was found to be 19%.
Regarding `O=C(NCCc1ccccc1)c1ccc2c(c1)Sc1ccccc1C(=O)N2` [Compound 1200], in series [1], the “AD38 Viability Normalized Result (CPAM/DMSO %) at 10 μM” value was determined as 125%. In addition, the activity at 10 µM in series [2] stood at 18%.
With `O=C(NCCc1cccc(OC(F)(F)F)c1)c1ccc2c(c1)NC(=O)c1ccccc1S2` [Compound 1201], in series [1], the “AD38 Viability Normalized Result (CPAM/DMSO %) at 10 μM” value stood at 50%. For the same compound, the activity at 10 µM in series [2] worked out at 1%.
For `O=C(NCc1cccc(O)c1)c1ccc2c(c1)NC(=O)c1ccccc1S2` [Compound 1202] the same measures were 107% and 7%.
On to `O=C(NCc1cccc(OC(F)(F)F)c1)c1ccc2c(c1)NC(=O)c1ccccc1S2` [Compound 1203], for which, in series [1], the “AD38 Viability Normalized Result (CPAM/DMSO %) at 10 μM” value amounted to 89%. Moreover, the activity at 10 µM in series [2] was 3%.
For `O=C(NCCC1CCC(O)CC1)c1ccc2c(c1)NC(=O)c1ccccc1S2` (stereo not drawn) [Compound 1204] the same measures were 97% and 2%.
Taken in the same sequence, the figures for `O=C(NCCC1CCCCC1)c1ccc2c(c1)NC(=O)c1ccccc1S2(=O)=O` [Compound 1206, N-(2-cyclohexylethyl)-11-oxo-10, 11-dihydrodibenzo [b,f] [1,4] thiazepine-8-carboxamide 5,5-dioxide] were 106% and 10%.
In the case of `O=C(CCC1CCCCC1)Nc1ccc2c(c1)NC(=O)c1ccccc1S2` [Compound 1207], the “AD38 Viability Normalized Result (CPAM/DMSO %) at 10 μM” value in series [1] is 99%. Also, in series [2], the activity at 10 µM came to 24%.
Turning to `O=C(NCCOc1ccc(F)cc1)c1ccc2c(c1)NC(=O)c1ccccc1S2` [Compound 1208], the “AD38 Viability Normalized Result (CPAM/DMSO %) at 10 μM” value in series [1] stood at 103%. The activity at 10 µM in series [2] was determined as 11%.
For `O=C(NCCC1CCCO1)c1ccc2c(c1)NC(=O)c1ccccc1S2` (stereo not drawn) [Compound 1209], in series [1], the “AD38 Viability Normalized Result (CPAM/DMSO %) at 10 μM” value came to 102%. Besides, the activity at 10 µM in series [2] was found to be 1%.
Taken in the same sequence, the figures for `O=C(NCc1ccccn1)c1ccc2c(c1)NC(=O)c1ccccc1S2` [Compound 1210] were 116% and 25%.
For `O=C(NCc1cccnc1)c1ccc2c(c1)NC(=O)c1ccccc1S2` [Compound 1211] the same measures were 106% and 1%.
Taken in the same sequence, the figures for `CC(CNC(=O)c1ccc2c(c1)NC(=O)c1ccccc1S2)c1ccccc1` (stereo not drawn) [Compound 1212] were 72% and 1%.
`CC(C)(CNC(=O)c1ccc2c(c1)NC(=O)c1ccccc1S2)c1ccccc1` [Compound 1213]: in series [1], the “AD38 Viability Normalized Result (CPAM/DMSO %) at 10 μM” value was 55%. Further, the activity at 10 µM in series [2] amounted to 2%.
